In publication PMC6544242, “Development and validation of a multiplex UHPLC-MS/MS method for the determination of the investigational antibiotic against multi-resistant tuberculosis macozinone (PBTZ169) and five active metabolites in human plasma” (PLoS ONE, 2019):
Like-named read-outs stand apart in the source and are kept apart here.

Key:
[1] = human, 6 h
[2] = Phase Ia clinical pharmacokinetic trial, plasma levels in healthy volunteers; details: human
Procedure: The phase 1a clinical study assessing the safety and pharmacokinetics of PBTZ169 in healthy volunteers (NCT03423030), was performed at the Service of Clinical Pharmacology of the Lausanne University Hospital and was approved on 06.09.2017 (2017–01241) by the Ethics Committee of the Canton of Vaud (CER-VD) and on 17.11.2017 (2017DR1171) by Swissmedic. All volunteers gave their written informed consent.
The concentration measured in this plasma sample is 464 ng/mL, 147 ng/mL, 13 ng/mL, 12 ng/mL and 2 ng/mL for PBTZ169, Met 3-OH, Met 3-oxo, Met amino and Met 1-OH, respectively. […] Of note, measured plasma levels were multiplied by the factor 1.1 accounting for the blood 10:1 dilution due to citrate solution.

[3] = processed extract sample, 24h
[4] = human
[5] = tested on: Mycobacterium tuberculosis; details: not measured in this paper, cited from earlier work
[6] = Long-term stability in plasma; assay type: in vitro ADME, human; details: -20°C and -80°C
Procedure: Long-term stability in plasma. Stability in citrated plasma stored at -20°C and -80°C in suitable tubes for long-term storage (1, 3, 6 and 12 months) was evaluated at 1, 10, 100 and 1000 ng/mL. Deviations of the mean concentrations (n = 3) of samples measured at each time points from the nominal concentrations were calculated.

[7] = assay type: physicochemical; details: DMSO:MeOH (1:1 v/v), -20°C
Procedure: Each compound was independently weighed and the corresponding powder dissolved in the required volume of DMSO to give a 1 mg/mL stock solution of the compound that was sonicated for 5 minutes. The stock solution used for PBTZ169 was corrected for salt form of the analyte by applying the weighing factor (0.926). Due to the high purity of the PBTZ169 and the five metabolites, no additional correcting factors were applied for preparing compounds stock solutions. Stock solutions were prepared in 5 mL PP tubes and stored at -20°C. The stability of these solutions was verified over a period of 6 months (mean bias < 8%) and of 9 months (mean bias < 9%)
PBTZ169 and metabolites mixture solutions. Two distinct working solutions (WS) including PBTZ169 together with its five active metabolites were prepared: one for calibration standards and one for validation standards/quality control (QC) samples. Working solutions including all the analytes at 100 μg/mL were obtained by adding the required volumes of compounds stock solutions (50 μL) to 200 μL of a DMSO/MeOH (1:1 v/v) mixture in safe-lock 1.5 mL PP tubes. Spiking solutions for calibration, validation standards and QCs at the appropriate concentrations were prepared by applying sequential dilutions in DMSO/MeOH (1:1 v/v) mixture starting from the dedicated WS in safe-lock 1.5 mL PP tubes and thoroughly mixed. […]

Row | Compound | % from freshly processed samples (n=2) ([1]; 0.5 ng/mL) [%] | % from freshly processed samples (n=2) ([1]; 1 ng/mL) [%] | % from freshly prepared samples ([1]; 2 ng/mL) [%] | % from freshly processed samples (n=2) ([1]; 2 ng/mL) [%] | % from freshly processed samples (n=2) ([1]; 50 ng/mL) [%] | % from freshly prepared samples ([1]; 150 ng/mL) [%] | % from freshly processed samples (n=2) ([1]; 500 ng/mL) [%] | % from freshly processed samples (n=2) ([1]; 1000 ng/mL) [%] | % from freshly prepared samples ([1]; 1500 ng/mL) [%] | % from freshly processed samples (n=2) ([1]; 2000 ng/mL) [%] | % from t0 ([3]; 4°C, level H (QC 1500 ng/mL)) [%] | % from t0 ([3]; 4°C, level L (QC 2 ng/mL)) [%] | % from t0 ([3]; 4°C, level M (QC 150 ng/mL)) [%] | % from t0 ([3]; RT, level H (QC 1500 ng/mL)) [%] | % from t0 ([3]; RT, level L (QC 2 ng/mL)) [%] | % from t0 ([3]; RT, level M (QC 150 ng/mL)) [%] | % from t0 ([4]; 1 h, 10 ng/mL) [%] | % from t0 ([4]; 1 h, 20 ng/mL) [%] | % from t0 ([4]; 1 h, 50 ng/mL) [%] | anti-TB activity in vitro (active / inactive) [5] | further results
1 | O=C(C1CCCCC1)N1CCN(c2nc(=O)c3cc(C(F)(F)F)cc([N+](=O)[O-])c3s2)CC1 [Met oxo] | -11 | -12 | -6 | -6 | -10 | -8 | -8 | -3 | -5 | -3 | 4 | -3 | 5 | 25 | 6 | 29 | 1 | 1 | -1 | active | detection in vivo in plasma [2]: not detected; % from t0 ([4]; 1 h, 100 ng/mL): -1%; % from t0 ([4]; 1 h, 200 ng/mL): 0%; % from t0 ([4]; 1 h, 500 ng/mL): -5%; % from t0 ([4]; 2 h, 10 ng/mL): -3%; % from t0 ([4]; 2 h, 20 ng/mL): -4%; % from t0 ([4]; 2 h, 50 ng/mL): -8%; % from t0 ([4]; 2 h, 100 ng/mL): -3%; % from t0 ([4]; 2 h, 200 ng/mL): 1%; % from t0 ([4]; 2 h, 500 ng/mL): -5%; % from t0 ([4]; 4 h, 10 ng/mL): -1%; % from t0 ([4]; 4 h, 20 ng/mL): 0%; % from t0 ([4]; 4 h, 50 ng/mL): -6%; % from t0 ([4]; 4 h, 100 ng/mL): -4%; % from t0 ([4]; 4 h, 200 ng/mL): 1%; % from t0 ([4]; 4 h, 500 ng/mL): -8%
2 | O=c1nc(N2CCN(CC3(O)CCCCC3)CC2)sc2c([N+](=O)[O-])cc(C(F)(F)F)cc12 [Met 1-OH] | -15 | -9 | -4 | -4 | -1 | -3 | -1 | 0 | -2 | -1 | -2 | -12 | -9 | -12 | -55 | -33 | 4 | 3 | -1 | active | plasma levels in volunteers ([2]; in vivo): below 0.5 ng/mL; % from t0 ([4]; 1 h, 100 ng/mL): 2%; % from t0 ([4]; 1 h, 200 ng/mL): -1%; % from t0 ([4]; 1 h, 500 ng/mL): -4%; % from t0 ([4]; 2 h, 10 ng/mL): 1%; % from t0 ([4]; 2 h, 20 ng/mL): -2%; % from t0 ([4]; 2 h, 50 ng/mL): -4%; % from t0 ([4]; 2 h, 100 ng/mL): 0%; % from t0 ([4]; 2 h, 200 ng/mL): -3%; % from t0 ([4]; 2 h, 500 ng/mL): -6%; % from t0 ([4]; 4 h, 10 ng/mL): -1%; % from t0 ([4]; 4 h, 20 ng/mL): 0%; % from t0 ([4]; 4 h, 50 ng/mL): -9%; % from t0 ([4]; 4 h, 100 ng/mL): -2%; % from t0 ([4]; 4 h, 200 ng/mL): -4%; % from t0 ([4]; 4 h, 500 ng/mL): -11%
3 | O=c1nc(N2CCN(CC3CCCCC3O)CC2)sc2c([N+](=O)[O-])cc(C(F)(F)F)cc12 (centres unmarked) [Met 2-OH] | -16 | -6 | -8 | -6 | -4 | -4 | -3 | 0 | -4 | -2 | -4 | -16 | -10 | -18 | -61 | -39 | 1 | 1 | -10 | active | detection in vivo in plasma [2]: not detected; % from t0 ([4]; 1 h, 100 ng/mL): 2%; % from t0 ([4]; 1 h, 200 ng/mL): -2%; % from t0 ([4]; 1 h, 500 ng/mL): -9%; % from t0 ([4]; 2 h, 10 ng/mL): -1%; % from t0 ([4]; 2 h, 20 ng/mL): -1%; % from t0 ([4]; 2 h, 50 ng/mL): -17%; % from t0 ([4]; 2 h, 100 ng/mL): -2%; % from t0 ([4]; 2 h, 200 ng/mL): -5%; % from t0 ([4]; 2 h, 500 ng/mL): -15%; % from t0 ([4]; 4 h, 10 ng/mL): -3%; % from t0 ([4]; 4 h, 20 ng/mL): -2%; % from t0 ([4]; 4 h, 50 ng/mL): -30%; % from t0 ([4]; 4 h, 100 ng/mL): -3%; % from t0 ([4]; 4 h, 200 ng/mL): -6%; % from t0 ([4]; 4 h, 500 ng/mL): -26%
4 | O=c1nc(N2CCN(CC3CCCC(O)C3)CC2)sc2c([N+](=O)[O-])cc(C(F)(F)F)cc12 (centres unmarked) [Met 3-OH] | -14 | -13 | -7 | -10 | -8 | -5 | -6 | -1 | -4 | -2 | -2 | -14 | -9 | -14 | -59 | -36 | 6 | 8 | 12 | active | % from freshly processed samples (n=2) ([1]; 0.2 ng/mL): 3%; % from t0 ([4]; 1 h, 100 ng/mL): 5%; % from t0 ([4]; 1 h, 200 ng/mL): 5%; % from t0 ([4]; 1 h, 500 ng/mL): 8%; % from t0 ([4]; 2 h, 10 ng/mL): 7%; % from t0 ([4]; 2 h, 20 ng/mL): 7%; % from t0 ([4]; 2 h, 50 ng/mL): 12%; % from t0 ([4]; 2 h, 100 ng/mL): 4%; % from t0 ([4]; 2 h, 200 ng/mL): 1%; % from t0 ([4]; 2 h, 500 ng/mL): 9%; % from t0 ([4]; 4 h, 10 ng/mL): 4%; % from t0 ([4]; 4 h, 20 ng/mL): 12%; % from t0 ([4]; 4 h, 50 ng/mL): 15%; % from t0 ([4]; 4 h, 100 ng/mL): 4%; % from t0 ([4]; 4 h, 200 ng/mL): 6%; % from t0 ([4]; 4 h, 500 ng/mL): 1%
5 | O=C1CCCC(CN2CCN(c3nc(=O)c4cc(C(F)(F)F)cc([N+](=O)[O-])c4s3)CC2)C1 (centres unmarked) [Met 3-oxo] | -14 | -2 | -4 | -10 | -6 | -4 | -4 | 0 | -4 | -1 | -2 | -14 | -9 | -10 | -58 | -37 | -1 | -6 | -22 | active | % from freshly processed samples (n=2) ([1]; 0.2 ng/mL): 6%; % from t0 ([4]; 1 h, 100 ng/mL): 0%; % from t0 ([4]; 1 h, 200 ng/mL): -9%; % from t0 ([4]; 1 h, 500 ng/mL): -22%; % from t0 ([4]; 2 h, 10 ng/mL): -5%; % from t0 ([4]; 2 h, 20 ng/mL): -9%; % from t0 ([4]; 2 h, 50 ng/mL): -32%; % from t0 ([4]; 2 h, 100 ng/mL): -5%; % from t0 ([4]; 2 h, 200 ng/mL): -11%; % from t0 ([4]; 2 h, 500 ng/mL): -31%; concentration deviation in whole blood ([4]; 4 h): exceeded the accepted -15% limit; % from t0 ([4]; 4 h, 10 ng/mL): -9%; % from t0 ([4]; 4 h, 20 ng/mL): -15%; % from t0 ([4]; 4 h, 50 ng/mL): -51%; % from t0 ([4]; 4 h, 100 ng/mL): -10%; % from t0 ([4]; 4 h, 200 ng/mL): -18%; % from t0 ([4]; 4 h, 500 ng/mL): -50%
6 | Nc1cc(C(F)(F)F)cc2c(=O)nc(N3CCN(CC4CCCCC4)CC3)sc12 [Met amino] | – | – | – | – | – | – | – | – | – | – | – | – | – | – | – | – | – | – | – | inactive | time spiked plasma samples stability has been verified [6]: 1 month; anti-TB activity in vitro (active / inactive) ([5]; listed as amino metabolite): devoid of anti-TB activity; time working solutions are stable [7]: ≥ 3 months
